Measurements reported in patent publication US20210315869A1, “COMPOUNDS AND METHODS FOR CSK MODULATION AND INDICATIONS THEREFOR” (Plexxikon Inc., priority 2020, published 2021).

Columns and labels:
CSK = target: T1, CSK (Homo sapiens, UniProt P41240); assay: Human CSK enzymatic assay (AlphaScreen, Poly (Glu4-Tyr) substrate); format: biochemical; settings: 100 uM ATP; read-out: CSK IC50 (μM) COFACTOR: 100 uM ATP
T1 construct: purchased Thermo Fisher
Method: This assay measures the ability of CSK to phosphorylate a biotinylated peptide containing multiple tyrosine residues in vitro. The CSK enzyme was purchased from Thermo Fisher. The biotinylated Poly (Glu4-Tyr) peptide substrate was purchased from Sigma-Aldrich. The CSK enzyme assay was performed using 0.75 ng CSK enzyme and 30 nM Poly (Glu4-Tyr) substrate in the presence of 25 mM Hepes pH 7.5, 5 mM Mg Acetate, 0.1% NP-40, 1 mM DTT, 0.01% BSA, and 100 μM ATP. A 19 μL volume of the above reaction mixture was added to wells of 384-well AlphaPlate (PerkinElmer GA, USA) containing 1 μL of various concentrations of test compound or DMSO vehicle and incubated for 60 minutes at room temperature. 16 wells containing all the components of reaction mixture and 5% DMSO serve as high control. 16 wells containing all the components except ATP of reaction mixture and 5% DMSO served as low control. The enzymatic reaction was stopped by the addition of 5 μL stop/detection mixture containing 25 mM Hepes pH 7.5 100 mM EDTA, and 5 μg/mL streptavidin-coated AlphaScreen donor beads (PerkinElmer GA, USA) and incubated for 20 minutes. A 5 μL mixture containing 25 mM Hepes pH 7.5, 100 mM EDTA, and 5 μg/mL anti-phosphotyrosine antibody PY20-coated AlphaScreen acceptor beads (PerkinElmer GA, USA) was added and the plate was incubated for 1 hour at room temperature. The streptavidin donor beads bind to the biotin moiety on the biotinylated Poly (Glu4-Tyr) substrate and the PY20 antibody-coated acceptor beads bind to tyrosine residues on the substrate that have been directly phosphorylated by CSK. Upon excitation of these beads with laser light at 680 nm, singlet oxygen was produced. This singlet oxygen was rapidly quenched, unless the AlphaScreen PY20 acceptor beads are in close proximity, in which case a proximity signal can be measured at 580 nm. In the presence of catalytic activity, there was a very strong proximity signal. Selective CSK inhibitors affect a decrease in this proximity signal through a decrease in phosphorylation of the Poly (Glu4-Tyr) substrate. The percentage of inhibition at individual concentrations relative to high and low controls was calculated. The data were analyzed by using nonlinear regression to generate IC50 values. Human LCK enzymatic assay

LCK = target: T2, LCK (Homo sapiens, UniProt P06239); assay: Human LCK enzymatic assay (AlphaScreen, Poly (Glu4-Tyr) substrate); format: biochemical; settings: 100 uM ATP; read-out: LCK IC50 (uM) COFACTOR: 100 uM ATP
T2 construct: purchased ProQinase
Method: This assay measures the ability of LCK to phosphorylate a biotinylated peptide containing multiple tyrosine residues in vitro. The LCK enzyme was purchased from ProQinase. The biotinylated Poly (Glu4-Tyr) peptide substrate was purchased from Sigma-Aldrich. The LCK enzyme assay was performed using 1 ng LCK enzyme and 30 nM Poly (Glu4-Tyr) substrate in the presence of 25 mM Hepes pH 7.5, 10 mM MnCl2, 50 mM NaCl, 0.01% Tween-20, 0.5 mM DTT, 0.01% BSA, and 100 μM ATP. A 19 μL volume of the above reaction mixture was added to wells of 384-well AlphaPlate (PerkinElmer GA, USA) containing 1 μL of various concentrations of test compound or DMSO vehicle and incubated for 40 minutes at 25° C. 16 wells containing all the components of reaction mixture and 5% DMSO served as high control. 16 wells containing all the components except ATP of reaction mixture and 5% DMSO served as low control. The enzymatic reaction was stopped by the addition of 5 μL stop/detection mixture containing 25 mM Hepes pH 7.5 100 mM EDTA, and 10 μg/mL streptavidin-coated AlphaScreen donor beads (PerkinElmer GA, USA) and incubated for 20 minutes. A 5 μL mixture containing 25 mM Hepes pH 7.5, 100 mM EDTA, and 10 μg/mL anti-phosphotyrosine antibody PY20-coated AlphaScreen acceptor beads (PerkinElmer GA, USA) was added and the plate was incubated for 1 hour at room temperature. The streptavidin donor beads bind to the biotin moiety on the biotinylated Poly (Glu4-Tyr) substrate and the PY20 antibody-coated acceptor beads bind to tyrosine residues on the substrate that have been directly phosphorylated by LCK. Upon excitation of these beads with laser light at 680 nm, singlet oxygen was produced. This singlet oxygen was rapidly quenched, unless the AlphaScreen PY20 acceptor beads are in close proximity, in which case a proximity signal can be measured at 580 nm. In the presence of catalytic activity, there was a very strong proximity signal. Selective LCK inhibitors affect a decrease in this proximity signal through a decrease in phosphorylation of the Poly (Glu4-Tyr) substrate. The percentage of inhibition at individual concentrations relative to high and low controls was calculated. The data were analyzed by using nonlinear regression to generate IC50 values.

Jurkat/NFAT-RE cells = assay: NFAT reporter assay (luciferase) in Jurkat/NFAT-RE cells; format: cell-based; settings: Homo sapiens, 0.02 μg/mL anti-CD3 antibody OKT3, 3 hours, read-out: Jurkat EC50 (uM) Cell Assay: Reporter Cell Variant: NFAT response element
Excerpt: To assess the ability of CSK inhibitors to activate LCK and stimulate signaling downstream of the T-cell receptor, an NFAT reporter assay was used for monitoring of LCK activation in cells through the activation of LCK-dependent signaling through a reporter assay. The Jurkat T-cell cell line was genetically engineered to express a luciferase reporter that is regulated by the NFAT-response element. (Clipstone, N. A., & Crabtree, G. R., Identification of calcineurin as a key signalling enzyme in T-lymphocyte activation, Nature, 357(6380), 695-697, 1992). Stimulation of the T-cell receptor with anti-CD3 antibody increases the expression of the luciferase reporter. To test the ability of CSK inhibitors to stimulate LCK and downstream T-cell signaling, the cells were stimulated with a suboptimal concentration of anti-CD3 ligand, to measure the ability of CSK inhibitors to increase luciferase expression.
This assay measures the signaling activity downstream of the T-cell receptor, specifically the ability of the NFAT transcription factor to be translocated to the nucleus and induce expression of a firefly luciferase gene. Jurkat/NFAT-RE cells stably expressing the NFAT reporter construct were purchased from BPS Bioscience. The assay was performed by plating 40,000 Jurkat/NFAT-RE cells in a 50 μL volume of serum-free growth media in a 96-well plate. Following an overnight incubation, the cells were treated with CSK inhibitors and 0.02 μg/mL anti-CD3 antibody OKT3 (BD Bioscience) for 3 hours at 37° C. High control wells were stimulated with DMSO and 5 μg/mL OKT3 to maximally stimulate the NFAT reporter, and low control wells were stimulated with DMSO and 0.02 μg/mL OKT3. Following the 3 hour incubation, the cells were assayed for viability using CellTiter-Fluor™ (Promega), and for luciferase expression using ONE-Glo™ (Promega). The ONE-Glo™ signal was normalized to the CellTiter-Fluor™ signal, and the percentage of NFAT activation relative to high and low controls was calculated. The data were analyzed by using nonlinear regression to generate EC50 values. Selective CSK inhibitors affect an increase in luciferase expression in the presence of low level stimulation of the T-cell receptor.

T2 sequence (P06239 whole entry): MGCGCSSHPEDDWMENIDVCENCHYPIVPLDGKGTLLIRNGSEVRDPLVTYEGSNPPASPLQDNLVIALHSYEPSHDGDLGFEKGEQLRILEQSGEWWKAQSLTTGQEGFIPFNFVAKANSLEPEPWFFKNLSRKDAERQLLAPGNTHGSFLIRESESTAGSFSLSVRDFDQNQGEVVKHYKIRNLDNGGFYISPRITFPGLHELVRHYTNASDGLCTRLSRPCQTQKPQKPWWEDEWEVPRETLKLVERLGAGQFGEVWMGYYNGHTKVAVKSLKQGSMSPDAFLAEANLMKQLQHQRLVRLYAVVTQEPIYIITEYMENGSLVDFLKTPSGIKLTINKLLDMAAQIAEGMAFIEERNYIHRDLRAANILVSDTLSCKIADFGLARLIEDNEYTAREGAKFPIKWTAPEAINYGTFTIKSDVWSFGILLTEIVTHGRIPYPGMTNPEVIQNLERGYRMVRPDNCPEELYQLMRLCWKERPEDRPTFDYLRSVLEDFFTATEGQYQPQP

| Structure (SMILES) | IC50 (CSK) [µM] | IC50 (LCK) [µM] | EC50 (Jurkat/NFAT-RE cells) [µM] |
| --- | --- | --- | --- |
| O=c1c(-c2c(F)ccc(NS(=O)(=O)c3cc4scnc4cc3F)c2F)cc2cnccc2n1CC1CC1 [P-0025, N-(3-(1-(cyclopropylmethyl)-2-oxo-1,2-dihydro-1,6-naphthyridin-3-yl)-2,4-difluorophenyl)-5-fluorobenzo[d]thiazole-6-sulfonamide] | 0.5 to 5 | 5 to 100 | 5 to 100 |
| Nc1cc2c(cn1)cc(-c1c(F)ccc(NS(=O)(=O)c3cc4scnc4cc3F)c1F)c(=O)n2CC1CC1 [P-0002, N-(3-(7-amino-1-(cyclopropylmethyl)-2-oxo-1,2-dihydro-1,6-naphthyridin-3-yl)-2,4-difluorophenyl)-5-fluorobenzo[d]thiazole-6-sulfonamide] | 0.001 to 0.5 | 0.5 to 5 | 0.001 to 0.5 |
| Nc1cc2c(cn1)cc(-c1c(F)ccc(NS(=O)(=O)c3ccc4ncsc4c3F)c1F)c(=O)n2C1CC1 [P-0027, N-(3-(7-amino-1-cyclopropyl-2-oxo-1,2-dihydro-1,6-naphthyridin-3-yl)-2,4-difluorophenyl)-7-fluorobenzo[d]thiazole-6-sulfonamide] | 0.001 to 0.5 |  | 0.001 to 0.5 |
| Nc1cc2c(cn1)cc(-c1cccc(NS(=O)(=O)c3cc4scnc4cc3F)c1F)c(=O)n2C1CC1 [P-0029, N-(3-(7-amino-1-cyclopropyl-2-oxo-1,2-dihydro-1,6-naphthyridin-3-yl)-2-fluorophenyl)-5-fluorobenzo[d]thiazole-6-sulfonamide] | 0.001 to 0.5 | 5 to 100 |  |
| Cc1c(-c2cccc(NS(=O)(=O)c3cc4scnc4cc3F)c2F)c(=O)n(C2CC2)c2cc(N)ncc12 [P-0028, N-(3-(7-amino-1-cyclopropyl-4-methyl-2-oxo-1,2-dihydro-1,6-naphthyridin-3-yl)-2-fluorophenyl)-5-fluorobenzo[d]thiazole-6-sulfonamide] | 5 to 100 | 5 to 100 |  |

Next, values leading:

| IC50 (CSK) [µM] | IC50 (LCK) [µM] | EC50 (Jurkat/NFAT-RE cells) [µM] | Structure (SMILES) |
| --- | --- | --- | --- |
| 0.001 to 0.5 | 5 to 100 | 0.5 to 5 | Nc1cc2[nH]c(=O)c(-c3c(F)ccc(NS(=O)(=O)c4cc5scnc5cc4F)c3F)cc2cn1 [P-0007, N-(3-(7-amino-2-oxo-1,2-dihydro-1,6-naphthyridin-3-yl)-2,4-difluorophenyl)-5-fluorobenzo[d]thiazole-6-sulfonamide] |
| 0.001 to 0.5 | 0.5 to 5 | 0.001 to 0.5 | CC(F)(F)Cn1c(=O)c(-c2c(F)ccc(NS(=O)(=O)c3ccc4ncsc4c3F)c2F)cc2cnc(N)cc21 [P-0020, N-(3-(7-amino-1-(2,2-difluoropropyl)-2-oxo-1,2-dihydro-1,6-naphthyridin-3-yl)-2,4-difluorophenyl)-7-fluorobenzo[d]thiazole-6-sulfonamide] |
| 0.001 to 0.5 | 5 to 100 | 0.001 to 0.5 | CC(F)(F)Cn1c(=O)c(-c2c(F)ccc(NS(=O)(=O)c3cc4scnc4cc3F)c2F)cc2cnc(N)cc21 [P-0016, N-(3-(7-amino-1-(2,2-difluoropropyl)-2-oxo-1,2-dihydro-1,6-naphthyridin-3-yl)-2,4-difluorophenyl)-5-fluorobenzo[d]thiazole-6-sulfonamide] |
| 0.001 to 0.5 | 0.001 to 0.5 | 0.001 to 0.5 | Nc1cc2c(cn1)cc(-c1c(F)ccc(NS(=O)(=O)c3ccc4ncsc4c3F)c1F)c(=O)n2CC1CC1 [P-0001, N-(3-(7-amino-1-(cyclopropylmethyl)-2-oxo-1,2-dihydro-1,6-naphthyridin-3-yl)-2,4-difluorophenyl)-7-fluorobenzo[d]thiazole-6-sulfonamide] |
| 0.001 to 0.5 | 5 to 100 | 0.5 to 5 | COCCNc1cc2c(cn1)cc(-c1c(F)ccc(NS(=O)(=O)c3cc4scnc4cc3F)c1F)c(=O)n2CC1CC1 [P-0011, N-(3-(1-(cyclopropylmethyl)-7-((2-methoxyethyl)amino)-2-oxo-1,2-dihydro-1,6-naphthyridin-3-yl)-2,4-difluorophenyl)-5-fluorobenzo[d]thiazole-6-sulfonamide] |
